The text below walks through data of the supplement of paper PMC4862054.

Conditions in all cases: 72 h
The test system of one assay is BT-549. The gist of the method: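 EC50 was fitted from dose-response curves and censored at the highest concentration tested. To build those curves, breast cancer cell lines (20 µl suspension) were seeded into 384-well plates containing compound at 5 concentrations in 10-fold steps over a compound-specific 10,000-fold range and incubated for 72 h. Readouts were CellTox Green fluorescence (485/520 nm) for cell death and then CellTiter-Glo luminescence for viability, with each plate normalised to 0.1 % DMSO and a positive kill control.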

The next assay has as its system CAL-51. The procedure:
(§1)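 Drug sensitivity and resistance testing (DSRT) of breast cancer cell lines in 384-well plates, 5 concentrations in 10-fold dilutions over a compound-specific 10,000-fold range. After 72 h, cytotoxicity was read by CellTox Green fluorescence and viability by CellTiter-Glo luminescence (multiplexed), normalised to DMSO and benzethonium chloride controls. EC50 is the inflection point of the fitted dose-response curve (bottom asymptote free, so it can be relative for partial curves) and is censored at the highest tested concentration. Rows with DSS 0 (no meaningful response) were excluded.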

The test system of a further assay is MDA-MB-231. The procedure:
as §1

On to `CC(C)C[C@H](NC(=O)[C@H](Cc1ccccc1)NC(=O)c1cnccn1)B(O)O` [Bortezomib], for which, in the assay on BT-549, the “EC50, CellTiter-Glo” value was 3.96 nM. The results for the “EC50, CellTox Green” value in the assay with CAL-51 and in the assay with MDA-MB-231 were 27.5 nM and 13.9 nM, respectively.

Regarding `COc1cccc2c1C(=O)c1c(O)c3c(c(O)c1C2=O)C[C@@](O)(C(C)=O)C[C@@H]3O[C@H]1C[C@H](N)[C@H](O)[C@H](C)O1` [Daunorubicin], in the assay on BT-549, the “EC50, CellTiter-Glo” value worked out at 129 nM. For the same compound, in the assay with CAL-51, the “EC50, CellTox Green” value is 183 nM.

Regarding `C#Cc1cccc(Nc2ncnc3cc(OC)c(OCCCCCCC(=O)NO)cc23)c1` [CUDC-101], in the assay with BT-549, the “EC50, CellTiter-Glo” value is 1170 nM. The entries for the “EC50, CellTox Green” value with CAL-51 and in the assay on MDA-MB-231 were 2460 nM and 403 nM, respectively.

Take `CC(=O)O[C@H]1C(=O)[C@@]2(C)[C@H]([C@H](OC(=O)c3ccccc3)[C@]3(O)C[C@H](OC(=O)[C@H](O)[C@@H](NC(=O)c4ccccc4)c4ccccc4)C(C)=C1C3(C)C)[C@]1(OC(C)=O)CO[C@@H]1C[C@@H]2O` [Paclitaxel]: the “EC50, CellTiter-Glo” value in the assay on BT-549 amounted to 4.79 nM. Besides, the entries for the “EC50, CellTox Green” value with CAL-51 and in the assay on MDA-MB-231 were 2.93 nM and 8.57 nM, respectively.

With `CN(c1ccccc1CNc1nc(Nc2ccc3c(c2)CC(=O)N3)ncc1C(F)(F)F)S(C)(=O)=O`, in the assay on BT-549, the “EC50, CellTiter-Glo” value was 3130 nM. Moreover, the “EC50, CellTox Green” value with CAL-51 turned out to be 201 nM; in the assay with MDA-MB-231 it was 1820 nM.

With `COc1c(C)cnc(Cn2cnc3c(Cl)nc(N)nc32)c1C` [BIIB021], the “EC50, CellTiter-Glo” value in the assay on BT-549 is 92.6 nM. Besides, the “EC50, CellTox Green” value with CAL-51 is 758 nM; in the assay on MDA-MB-231 it was 928 nM.

On to `COc1ncc(-c2ccc3nccc(-c4ccnnc4)c3c2)cc1NS(=O)(=O)c1ccc(F)cc1F`, for which the “EC50, CellTiter-Glo” value in the assay with BT-549 came out at 21.8 nM. Besides, the “EC50, CellTox Green” value in the assay with CAL-51 was 91.7 nM; in the assay on MDA-MB-231 it was 157 nM.

For the compound `C[C@@]1(C(=O)Nc2ccc(F)nc2)CCCN1c1nc(Nc2cc(C3CC3)n[nH]2)c2cccn2n1`, in the assay on BT-549, the “EC50, CellTiter-Glo” value stood at 1420 nM. Also, the results for the “EC50, CellTox Green” value in the assay on CAL-51 and in the assay with MDA-MB-231 were 824 nM and 1980 nM, respectively.

For `COC1=C2C[C@@H](C)C[C@H](OC)[C@H](O)[C@@H](C)/C=C(\C)[C@H](OC(N)=O)[C@@H](OC)/C=C\C=C(/C)C(=O)NC(=CC1=O)C2=O` [Geldanamycin], in the assay on BT-549, the “EC50, CellTiter-Glo” value was found to be 3180 nM. For the same compound, the “EC50, CellTox Green” value was 8440 nM with CAL-51 and 4120 nM in the assay with MDA-MB-231.

Take `CCS(=O)(=O)c1cccc(-c2cc(C(=O)NC3CCN(C)CC3)c(C)c3[nH]c4ncc(C)cc4c23)c1` [TAK-901]: the “EC50, CellTiter-Glo” value in the assay on BT-549 stood at 155 nM. Also, the “EC50, CellTox Green” value in the assay on MDA-MB-231 was found to be 184 nM.

Turning to `COC1=CC(c2cc3ccccc3[nH]2)=N/C1=C\c1[nH]c(C)cc1C` [Obatoclax], in the assay on BT-549, the “EC50, CellTiter-Glo” value is 3600 nM. The “EC50, CellTox Green” value stood at 2640 nM with CAL-51 and 760 nM in the assay with MDA-MB-231.

Turning to `COc1ccc(C2=N[C@@H](c3ccc(Cl)cc3)[C@@H](c3ccc(Cl)cc3)N2C(=O)N2CCNC(=O)C2)c(OC(C)C)c1` [Nutlin-3], the “EC50, CellTox Green” value in the assay on CAL-51 worked out at 252 nM.

Regarding `O=c1[nH]c(=O)n([C@H]2C[C@H](O)[C@@H](CO)O2)cc1F` [Floxuridine], in the assay on CAL-51, the “EC50, CellTox Green” value stood at 734 nM.
